Measured values as given in ChEMBL document CHEMBL1201862, “PubChem BioAssay data set” (2004).
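How tested: cells in 96-well plates exposed to compound for 48 hours at five concentrations. GI50 marks 50% less growth.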 The source made the active and inactive calls. Rule as the data show it: active = GI50 up to about 1.1 µM and inactive = higher.

What was measured:
Test in all cases: growth of human tumour cells (NCI), 48 h
[1] = test system: HL-60
[2] = test system: KM12
[3] = test system: OVCAR-8
[4] = test system: SK-MEL-2
[5] = test system: ACHN
[6] = test system: CAKI-1
[7] = test system: OVCAR-5
[8] = test system: K562
[9] = test system: RPMI-8226
[10] = test system: SF-539
[11] = test system: U-251
[12] = test system: HOP-62
[13] = test system: HCT-15
[14] = test system: M14
[15] = test system: UACC-62
[16] = test system: SW-620
[17] = test system: OVCAR-3
[18] = test system: EKVX
[19] = test system: SF-268
[20] = test system: A549
[21] = test system: NCI-H23
[22] = test system: HCT-116
[23] = test system: MDA-MB-435
[24] = test system: T47D
[25] = test system: COLO 205
[26] = test system: NCI-H460
[27] = test system: SK-MEL-5
[28] = test system: UACC-257
[29] = test system: HOP-92
[30] = test system: SNB-75
[31] = test system: IGROV-1
[32] = test system: NCI-H522
[33] = test system: MOLT-4
[34] = test system: MCF7
[35] = test system: OVCAR-4
[36] = test system: 786-0
[37] = test system: HT-29
[38] = test system: BT-549
[39] = test system: SR
[40] = test system: CCRF-CEM
[41] = test system: DU-145
[42] = test system: MDA-MB-231
[43] = test system: RXF 393
[44] = test system: NCI/ADR-RES
[45] = test system: SK-MEL-28
[46] = test system: NCI-H226
[47] = test system: HCC 2998
[48] = test system: SF-295
[49] = test system: TK-10
[50] = test system: SK-OV-3
[51] = test system: UO-31
[52] = test system: Hs-578T
[53] = test system: PC-3
[54] = test system: SNB-19
[55] = test system: A498
[56] = test system: SN12C
[57] = test system: Malme-3M

Compound: O=C(CC(=O)N1N=C(N(c2ccccc2)c2ccccc2)CC1c1ccccc1)Nc1ccccc1 (stereo not drawn)
- GI50 [1]: > 100 µM (inactive)
- GI50 [2]: > 100 µM (inactive)
- GI50 [3]: > 100 µM (inactive)
- GI50 [4]: > 100 µM (inactive)
- GI50 [5]: > 100 µM (inactive)
- GI50 [6]: > 100 µM (inactive)
- GI50 [7]: > 100 µM (inactive)
- GI50 [8]: > 100 µM (inactive)
- GI50 [9]: > 100 µM (inactive)
- GI50 [10]: > 100 µM (inactive)
- GI50 [11]: 56.6 µM (inactive)
- GI50 [12]: 48.5 µM (inactive)
- GI50 [13]: > 100 µM
- GI50 [14]: > 100 µM (inactive)
- GI50 [15]: 34.4 µM (inactive)
- GI50 [16]: > 100 µM (inactive)
- GI50 [17]: > 100 µM (inactive)
- GI50 [18]: > 100 µM (inactive)
- GI50 [19]: 40.8 µM (inactive)
- GI50 [20]: > 100 µM (inactive)
- GI50 [21]: > 100 µM (inactive)
- GI50 [22]: > 100 µM (inactive)
- GI50 [23]: > 100 µM (inactive)
- GI50 [24]: > 100 µM (inactive)
- GI50 [25]: > 100 µM (inactive)
- GI50 [26]: > 100 µM (inactive)
- GI50 [27]: > 100 µM (inactive)
- GI50 [28]: > 100 µM (inactive)
- GI50 [29]: > 100 µM (inactive)
- GI50 [30]: 61.4 µM (inactive)
- GI50 [31]: > 100 µM (inactive)
- GI50 [32]: 64.1 µM (inactive)
- GI50 [33]: 7.31 µM (inactive)
- GI50 [34]: > 100 µM (inactive)
- GI50 [35]: > 100 µM (inactive)
- GI50 [36]: 81.7 µM (inactive)
- GI50 [37]: > 100 µM (inactive)
- GI50 [38]: > 100 µM (inactive)
- GI50 [39]: 37.7 µM (inactive)
- GI50 [40]: > 100 µM (inactive)
- GI50 [41]: > 100 µM (inactive)
- GI50 [42]: 7.82 µM (inactive)
- GI50 [43]: 49.8 µM (inactive)
- GI50 [44]: > 100 µM (inactive)
- GI50 [45]: > 100 µM (inactive)
- GI50 [46]: > 100 µM (inactive)
- GI50 [47]: > 100 µM (inactive)
- GI50 [48]: 66.7 µM (inactive)
- GI50 [49]: > 100 µM (inactive)
- GI50 [50]: 80.9 µM (inactive)
- GI50 [51]: > 100 µM (inactive)
- GI50 [52]: 42.5 µM (inactive)
- GI50 [53]: > 100 µM (inactive)
- GI50 [54]: 78 µM (inactive)

Compound: COc1ccc2c(c1)/C(=C\c1cccc(/C=C3/C(=O)Nc4ccc(OC)cc43)n1)C(=O)N2
- GI50 [1]: 0.506 µM (active)
- GI50 [2]: 1.78 µM (inactive)
- GI50 [3]: 1.17 µM (inactive)
- GI50 [4]: 3.01 µM (inactive)
- GI50 [5]: 1.71 µM (inactive)
- GI50 [55]: 2.94 µM (inactive)
- GI50 [6]: 1.99 µM (inactive)
- GI50 [7]: 1.01 µM (active)
- GI50 [8]: 0.412 µM (active)
- GI50 [10]: 1.42 µM (inactive)
- GI50 [11]: 0.461 µM (active)
- GI50 [12]: 1.55 µM (inactive)
- GI50 [13]: 1.56 µM
- GI50 [14]: 1.32 µM (inactive)
- GI50 [16]: 0.982 µM (active)
- GI50 [17]: 0.676 µM (active)
- GI50 [18]: 2.84 µM (inactive)
- GI50 [19]: 2.42 µM (inactive)
- GI50 [20]: 3.05 µM (inactive)
- GI50 [21]: 0.925 µM (active)
- GI50 [22]: 0.352 µM (active)
- GI50 [23]: 1.17 µM (inactive)
- GI50 [24]: 0.381 µM (active)
- GI50 [25]: 0.33 µM (active)
- GI50 [26]: 1.4 µM (inactive)
- GI50 [27]: 0.834 µM (active)
- GI50 [28]: 2.48 µM (inactive)
- GI50 [29]: 2.25 µM (inactive)
- GI50 [30]: 19.1 µM (inactive)
- GI50 [32]: 0.861 µM (active)
- GI50 [33]: 0.261 µM (active)
- GI50 [34]: 0.466 µM (active)
- GI50 [35]: 1.02 µM (active)
- GI50 [36]: 0.964 µM (active)
- GI50 [56]: 0.757 µM (active)
- GI50 [38]: 0.91 µM (active)
- GI50 [40]: 0.421 µM (active)
- GI50 [41]: 2.1 µM (inactive)
- GI50 [43]: 0.942 µM (active)
- GI50 [44]: 8.85 µM (inactive)
- GI50 [47]: 0.933 µM (active)
- GI50 [48]: 2.47 µM (inactive)
- GI50 [49]: 1.73 µM (inactive)
- GI50 [50]: 2.02 µM (inactive)
- GI50 [57]: 2.01 µM (inactive)
- GI50 [51]: 1.67 µM (inactive)
- GI50 [52]: 4.35 µM (inactive)
- GI50 [53]: 1.32 µM (inactive)
- GI50 [54]: 0.805 µM (active)
